“Also recorded” adds a separate entry of the source.
Key:
[1] = tested on: human MRGPRX2 knock-in mice; test: Cpd 48/80-induced itch (scratching) behavioral model; assay type: in vivo, mouse; details: 3 mg/kg PO, Cpd 48/80 intradermal 3 h post-dose, scratching over 30 min
From the text: The generation and initial characterization of human MRGPRX2 knock-in (KI) mice has been previously reported ([15]). All experimental protocols were approved by the Animal Care and Use Committee at the Johns Hopkins University School of Medicine and studies conducted according to GSK’s Policy on the Care, Welfare and Treatment of Animals. All mice used for this study were 2- to 4-month old males and females (20–30 g) and randomized on body weight and sex using three groups of 18 animals per group.
On the day of the experiment, animals were allowed to acclimatize to the test chamber for 10 min prior to injection. Mice received a single PO dose of Compound B (or vehicle) as a suspension in 1% methylcellulose at a dose level of 3 mg/kg (dose volume 10 mL/kg). Scratching behavior was monitored over 30 min following a single intra-dermal injection of 10 μL of Cpd 48/80 (10 μg/mL) or vehicle (saline) at 3 h post-dose of the antagonist. A bout of scratching was defined as a hindpaw directed continuous scratching movement at the injection site. The scratching behavior scorer was blinded to treatment. […]
Figure 6 Oral treatment with the potent and selective MRGPRX2 antagonist, Compound B (3 mg/kg), blocks Cpd 48/80–induced itch response using human MRGPRX2 knock-in mice. […] Average ± SD blood-free concentration of antagonist measured at end of “itch” observation period was 19 ± 16 nM Compound B.

MRGPRX2 [2] = target: T1, MRGPRX2 (Homo sapiens, UniProt Q96LB1); test: Substance P-stimulated tryptase release from freshly isolated human skin mast cells; assay type: cell-based; set-up: human mast cells expressing endogenous MRGPRX2; endogenous in cells; […]; details: read-out: pIC50, inhibition of Substance P-stimulated tryptase release (converted)
T1 sequence (Q96LB1 1-330): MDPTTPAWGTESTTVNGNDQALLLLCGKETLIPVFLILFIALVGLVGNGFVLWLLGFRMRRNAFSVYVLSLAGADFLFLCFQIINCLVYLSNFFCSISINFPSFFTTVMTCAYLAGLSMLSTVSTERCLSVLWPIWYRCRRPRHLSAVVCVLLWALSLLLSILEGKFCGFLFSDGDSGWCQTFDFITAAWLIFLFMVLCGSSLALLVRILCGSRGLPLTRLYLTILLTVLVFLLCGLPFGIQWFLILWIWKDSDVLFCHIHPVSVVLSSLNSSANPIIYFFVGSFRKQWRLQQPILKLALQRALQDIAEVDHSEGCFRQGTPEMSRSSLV
Description: (§1) Tissue was processed, removing adipose and cutting into small segments. Epidermis was removed after incubation with dispase II (2 mg/mL; Sigma-Aldrich) [100 mL/50-cm^2 tissue, base buffer; Dulbecco’s Phosphate-buffered Saline (D-PBS) (Gibco, supplemented with Ca^2+/Mg^2+), amphotericin B (2.5 μg/mL), penicillin (100 units/mL)/streptomycin (100 μg/mL) (Sigma-Aldrich)] for 37°C for 2–4 h followed by 4°C overnight. The remaining dermis was homogenized into a uniform mass and digested with an enzyme cocktail [collagenase IV (10 mg/mL; Gibco), hyaluronidase I-S (5 mg/mL; Sigma), DNAse I (10 μg/ml; Roche)] in base buffer (supplemented with 10% FBS) in a shaking incubator at 37°C for 90 min. […]
(§2) For human primary skin mast cell degranulation experiments, both β-hexosaminidase and tryptase were measured. […] Plates were centrifuged, with supernatants collected and lysates generated [cell pellets lysed in 0.1% Tx100 (Sigma), in assay buffer], and then stored at −80°C for later quantification. β-Hexosaminidase activity assay was performed as already described. For tryptase quantification: The amount of total tryptase (α and β tryptase) was quantified using the ImmunoCap Tryptase Test ran on either a Phadia 100 or 250 Immunoassay Analyzer as per the manufacturer’s protocol. […]

MRGPRX2 [3] = target: T1, MRGPRX2; test: FcεR1/MRGPRX2 dual-stimulation β-hexosaminidase release in freshly isolated human skin mast cells; assay type: cell-based; set-up: human mast cells expressing endogenous MRGPRX2; endogenous in cells; […]; details: Substance P plus anti-IgE (10 μg/mL); n = 3 donors
Description: as §1, §2

Compound: C[C@@H](C(=O)Nc1cnc(Oc2ccc(F)cc2F)cn1)N1CCC(F)(F)[C@@H](c2cc[n+]([O-])cc2)C1 [Compound B]
- Effect on Cpd 48/80-induced itch response [1]: significant blockade; also recorded: completely block
- IC50 (MRGPRX2 [2]): 0.417 nM
- Effect on MRGPRX2-dependent augmentation of FcεR1/MRGPRX2 dual-stimulation β-hexosaminidase release (MRGPRX2 [3]): selectively inhibits

Reference: paper PMC11527646, “Pharmacological blockade of the mast cell MRGPRX2 receptor supports investigation of its relevance in skin disorders” (Frontiers in Immunology, 2024)
